These results are taken from EP0329053A1, “Choline esters of glycerophosphoric acids” (MAGIS FARMACEUTICI S.p.A., priority 1988, dated 1989).

Structures are written as SMILES.

The nature of this data set: Acute toxicity by the Weill method. The conditions noted are these: in vivo, mouse, read-out: LD₅₀. The procedure: The acute toxicity of the compounds according to the invention was studied on the mouse by the Weill method (Weill C.S. Biomed. J. 8 249 (1952)). […] For the compound of formula (I) wherein n=1 and R, R¹ equal to H, the LD₅₀ is higher than 2000 mg/kg.

Take `C[N+](C)(C)CCOP(=O)([O-])OP(=O)(O)OCC(O)CO` (stereo not drawn) [choline α-glyceryl disphosphate]: the LD50 was more than 2000 mg/kg.
